Source: patent US20060167062A1, “Enema preparation” (priority 2003, published 2006)

How the values were obtained:
rat model of colitis [1] = experiment: Rat model of colitis (TNBS-induced), incidence of diarrhea, oral administration; type: in vivo
Procedure: A rat model of colitis was prepared in accordance with the method by Morris et al. (Morris GP et al., Hapten-induced model of chronic inflammation and ulceration in the rat colon. Gasteroenterology, 96: 795-803, 1989). Specifically, the rats were fasted for approximately 24 hr and anesthetized with ether. A Teflon catheter (registered trade mark) was inserted into the lumen of the colon via the anus. The tip of the catheter was advanced to 8 cm from the anus, and 0.25 ml of TNBS solution (final concentration of 60 mg/mL in 50% ethanol) was injected into the colon. Rats were held in a vertical position for 30 seconds after TNBS injection (Day-0).
On the Day-B, the rats were anesthetized with ether, and sacrificed by exsanguination. The colon, from the end of the cecum to the anus, was excised, opened by a longitudinal incision, and the feces were macroscopically assessed at the excision of colons. When feces were not solid, it ws judged as diarrhea. Rats with no feces in the colon were excluded from diarrhea evaluation.

rat model of colitis [2] = experiment: Rat model of colitis (TNBS-induced), incidence of diarrhea, enema (intra-rectal) administration; type: in vivo; conditions: for incidence of diarrhea: vehicle control 73.9%
Procedure: A rat model of colitis was prepared in accordance with the method by Morris et al. (Morris GP et al., Hapten-induced model of chronic inflammation and ulceration in the rat colon. Gasteroenterology, 96: 795-803, 1989). Specifically, the rats were fasted for approximately 24 hr and anesthetized with ether. A Teflon catheter (registered trade mark) was inserted into the lumen of the colon via the anus. The tip of the catheter was advanced to 8 cm from the anus, and 0.25 ml of TNBS solution (final concentration of 60 mg/mL in 50% ethanol) was injected into the colon. Rats were held in a vertical position for 30 seconds after TNBS injection (Day-0). One day after an injection of TNBS (Day-1), rats were randomly allocated to the four groups described below based on body weight using a stratified random sampling method. The groups were as follows: The pharmacologically active ingredient and its vehicle were delivered at 8 cm orad to the anal verge of conscious rats through a Teflon catheter (registered trade mark) inserted into the lumen of the colon via the anus. They were administered once daily in the morning for 7 consecutive days from Day-1. On the Day-B, the rats were anesthetized with ether, and sacrificed by exsanguination. The colon, from the end of the cecum to the anus, was excised, opened by a longitudinal incision, and the feces were macroscopically assessed at the excision of colons. When feces were not solid, it ws judged as diarrhea. Rats with no feces in the colon were excluded from diarrhea evaluation. The results of the incidence of diarrhea were expressed as the proportion of rats with diarrhea in each group. Statistical analysis was performed between the vehicle control group (Group A) and the groups administered with the pharmacologically active ingredient (Group B to D) using Fisher's exact test (two-sided) to which Bonferroni correction, which takes multiplicity into consideration, was applied. Statistical significance is defined as p<0.05.

## CCOc1ccc(-c2nc(-c3cccc(C(=O)O)n3)cs2)cc1OCC [pharmacologically active ingredient, 6-[2-(3,4-diethoxyphenyl)thiazol-4-yl]pyridine-2-carboxylic acid]
Rat model of colitis [1]; 1 mg/kg/day
  incidence of diarrhea with oral administration: significantly effective
Rat model of colitis [1]; lower than 1 mg/kg/day
  incidence of diarrhea with oral administration: no significant decrease
Rat model of colitis [2]; Group B, 0.1 mg/kg/day enema once daily for 7 consecutive days from Day-1
  incidence of diarrhea: 33.3%
Rat model of colitis [2]; Group C, 0.3 mg/kg/day enema once daily for 7 consecutive days from Day-1
  incidence of diarrhea: 20.0%
Rat model of colitis [2]; Group D, 1 mg/kg/day enema once daily for 7 consecutive days from Day-1
  incidence of diarrhea: 20.0%
Rat model of colitis [2]; Groups B to D, 0.1 to 1 mg/kg/day enema, Fisher's exact test with Bonferroni correction, p<0.05
  incidence of diarrhea compared with the vehicle control group: suppressed significantly
Rat model of colitis [2]; intra-rectal versus oral, rat model of colitis
  amount with significant disorder-suppressing effect, intra-rectal relative to oral administration: one tenth
